The text below walks through data of ChEMBL document CHEMBL5291721, “A preclinical secondary pharmacology resource illuminates target-adverse drug reaction associations of marketed drugs” (Nat Commun, 2023).

Each structure is given as a SMILES string. A value given as a limit tells only on which side of the number the result lay.

Assay [1] deals with T1, Muscarinic acetylcholine receptor M2 (Homo sapiens, UniProt P08172).
T1 sequence (P08172 whole entry): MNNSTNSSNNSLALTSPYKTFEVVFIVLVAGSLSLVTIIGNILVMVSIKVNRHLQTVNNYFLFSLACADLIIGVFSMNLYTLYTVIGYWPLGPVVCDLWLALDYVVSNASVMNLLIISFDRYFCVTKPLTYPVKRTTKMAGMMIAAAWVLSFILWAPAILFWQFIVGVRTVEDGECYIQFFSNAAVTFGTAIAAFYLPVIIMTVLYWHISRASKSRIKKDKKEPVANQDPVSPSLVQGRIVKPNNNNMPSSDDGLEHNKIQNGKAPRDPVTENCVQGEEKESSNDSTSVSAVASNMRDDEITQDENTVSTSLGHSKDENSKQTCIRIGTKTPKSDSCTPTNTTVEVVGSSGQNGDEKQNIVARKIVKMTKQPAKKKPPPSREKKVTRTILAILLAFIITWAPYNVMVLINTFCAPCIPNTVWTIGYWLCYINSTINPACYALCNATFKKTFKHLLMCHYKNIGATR
The format is functional, cell-based.

In another assay the target is Vasopressin V2 receptor (Homo sapiens, UniProt P30518).
Sequence of Vasopressin V2 receptor (P30518 whole entry): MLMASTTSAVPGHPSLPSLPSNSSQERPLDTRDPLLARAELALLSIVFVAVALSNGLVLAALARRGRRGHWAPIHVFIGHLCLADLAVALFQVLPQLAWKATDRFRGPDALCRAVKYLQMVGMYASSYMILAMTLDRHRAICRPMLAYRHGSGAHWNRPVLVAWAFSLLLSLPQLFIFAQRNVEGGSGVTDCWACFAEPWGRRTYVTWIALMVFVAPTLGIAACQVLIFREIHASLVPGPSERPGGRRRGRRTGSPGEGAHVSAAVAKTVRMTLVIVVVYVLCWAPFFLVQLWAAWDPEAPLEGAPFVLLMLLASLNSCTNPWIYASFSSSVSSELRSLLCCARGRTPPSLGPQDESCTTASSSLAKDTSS
The target in another assay is T2, Glucocorticoid receptor (Homo sapiens, UniProt P04150).
T2 sequence (P04150 whole entry): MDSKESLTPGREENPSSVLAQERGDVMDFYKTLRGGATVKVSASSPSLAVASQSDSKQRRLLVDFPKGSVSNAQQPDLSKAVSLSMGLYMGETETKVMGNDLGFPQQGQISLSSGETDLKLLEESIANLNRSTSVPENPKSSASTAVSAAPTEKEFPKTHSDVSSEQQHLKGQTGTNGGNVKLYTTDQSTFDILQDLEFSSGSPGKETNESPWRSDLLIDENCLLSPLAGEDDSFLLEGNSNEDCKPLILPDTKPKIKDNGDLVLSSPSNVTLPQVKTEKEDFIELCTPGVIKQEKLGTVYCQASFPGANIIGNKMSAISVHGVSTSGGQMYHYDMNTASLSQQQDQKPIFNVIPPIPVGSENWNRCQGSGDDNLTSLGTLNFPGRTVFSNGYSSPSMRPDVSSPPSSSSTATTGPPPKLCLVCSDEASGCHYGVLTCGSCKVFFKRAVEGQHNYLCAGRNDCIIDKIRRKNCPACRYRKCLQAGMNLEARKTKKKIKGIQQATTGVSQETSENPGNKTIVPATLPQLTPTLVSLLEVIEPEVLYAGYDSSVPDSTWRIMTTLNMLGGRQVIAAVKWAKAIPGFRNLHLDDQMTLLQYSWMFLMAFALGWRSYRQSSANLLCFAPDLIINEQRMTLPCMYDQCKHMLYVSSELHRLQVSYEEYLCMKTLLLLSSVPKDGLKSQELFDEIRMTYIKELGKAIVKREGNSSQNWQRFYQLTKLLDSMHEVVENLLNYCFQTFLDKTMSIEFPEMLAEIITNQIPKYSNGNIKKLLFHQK

Another assay deals with T3, Endothelin-1 receptor (Homo sapiens, UniProt P25101).
T3 sequence (P25101 whole entry): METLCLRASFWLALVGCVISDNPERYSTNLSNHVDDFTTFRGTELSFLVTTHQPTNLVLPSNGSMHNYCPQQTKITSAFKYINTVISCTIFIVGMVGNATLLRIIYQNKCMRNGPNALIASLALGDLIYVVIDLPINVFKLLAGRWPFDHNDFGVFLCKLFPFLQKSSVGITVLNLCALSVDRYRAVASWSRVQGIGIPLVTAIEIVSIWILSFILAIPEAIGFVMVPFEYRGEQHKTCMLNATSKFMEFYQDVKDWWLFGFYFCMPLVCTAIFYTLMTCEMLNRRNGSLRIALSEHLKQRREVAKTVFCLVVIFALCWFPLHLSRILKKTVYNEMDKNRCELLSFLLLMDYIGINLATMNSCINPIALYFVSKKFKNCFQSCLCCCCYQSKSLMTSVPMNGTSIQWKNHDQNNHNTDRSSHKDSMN

Another assay addresses Cannabinoid receptor 1 (Homo sapiens, UniProt P21554). The format is functional, cell-based.
For assay [2], the target named is T4, Gamma-aminobutyric acid receptor subunit alpha-1 (Rattus norvegicus, UniProt P62813).
T4 sequence (P62813 whole entry): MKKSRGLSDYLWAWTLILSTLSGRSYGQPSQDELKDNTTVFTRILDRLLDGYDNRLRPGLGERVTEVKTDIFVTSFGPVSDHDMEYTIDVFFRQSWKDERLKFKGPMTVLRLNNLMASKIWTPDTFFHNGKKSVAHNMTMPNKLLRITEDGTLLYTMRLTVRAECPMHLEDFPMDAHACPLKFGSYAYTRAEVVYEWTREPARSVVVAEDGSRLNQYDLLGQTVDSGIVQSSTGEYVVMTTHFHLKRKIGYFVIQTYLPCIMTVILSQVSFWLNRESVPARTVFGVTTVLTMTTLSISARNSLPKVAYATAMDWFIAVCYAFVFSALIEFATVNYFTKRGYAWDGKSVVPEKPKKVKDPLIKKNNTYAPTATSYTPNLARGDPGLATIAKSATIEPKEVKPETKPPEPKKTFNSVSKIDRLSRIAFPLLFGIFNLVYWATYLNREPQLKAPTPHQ
The next assay addresses T5, Adenosine receptor A1 (Homo sapiens, UniProt P30542).
T5 sequence (P30542 whole entry): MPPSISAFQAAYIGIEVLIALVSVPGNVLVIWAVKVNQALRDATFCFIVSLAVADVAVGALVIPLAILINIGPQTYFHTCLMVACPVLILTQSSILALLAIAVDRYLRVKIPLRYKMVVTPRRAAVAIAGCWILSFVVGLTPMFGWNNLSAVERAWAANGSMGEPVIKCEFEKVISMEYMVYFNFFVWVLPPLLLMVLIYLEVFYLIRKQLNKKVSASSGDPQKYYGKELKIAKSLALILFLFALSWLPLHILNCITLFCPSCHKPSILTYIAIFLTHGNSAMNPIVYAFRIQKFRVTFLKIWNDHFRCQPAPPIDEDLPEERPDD

Assay [3] deals with 5-hydroxytryptamine receptor 2B (Homo sapiens, UniProt P41595). The format is functional, cell-based.
Sequence of 5-hydroxytryptamine receptor 2B (P41595 whole entry): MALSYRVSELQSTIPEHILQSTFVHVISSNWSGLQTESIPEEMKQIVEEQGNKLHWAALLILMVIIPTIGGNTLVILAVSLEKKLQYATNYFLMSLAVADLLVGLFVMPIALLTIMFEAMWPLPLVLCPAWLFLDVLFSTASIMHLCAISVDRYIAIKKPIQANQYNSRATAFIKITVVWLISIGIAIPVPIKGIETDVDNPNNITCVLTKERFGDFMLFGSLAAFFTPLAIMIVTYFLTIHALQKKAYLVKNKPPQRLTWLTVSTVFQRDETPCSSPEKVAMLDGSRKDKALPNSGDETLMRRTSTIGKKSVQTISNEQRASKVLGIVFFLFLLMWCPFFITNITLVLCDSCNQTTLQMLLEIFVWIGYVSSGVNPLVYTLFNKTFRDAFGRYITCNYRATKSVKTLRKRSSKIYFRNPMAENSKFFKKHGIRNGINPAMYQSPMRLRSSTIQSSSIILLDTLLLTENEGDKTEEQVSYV
Assay [4] has as its target T6, Type-1 angiotensin II receptor (Homo sapiens, UniProt P30556).
T6 sequence (P30556 whole entry): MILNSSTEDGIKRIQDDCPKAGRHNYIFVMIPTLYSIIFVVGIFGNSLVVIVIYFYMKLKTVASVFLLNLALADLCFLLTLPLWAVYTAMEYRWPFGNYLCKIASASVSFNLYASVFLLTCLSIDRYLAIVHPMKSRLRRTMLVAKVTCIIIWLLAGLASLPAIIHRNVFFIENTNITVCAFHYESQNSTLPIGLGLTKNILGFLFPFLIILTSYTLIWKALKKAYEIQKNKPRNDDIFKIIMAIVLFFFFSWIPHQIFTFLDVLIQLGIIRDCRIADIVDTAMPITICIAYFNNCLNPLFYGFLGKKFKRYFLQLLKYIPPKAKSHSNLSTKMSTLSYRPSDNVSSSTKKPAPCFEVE

Assay [5] has as its target 3',5'-cyclic-AMP phosphodiesterase 4D (Homo sapiens, UniProt Q08499). The assay is classed as functional.
The target in assay [6] is T4, Gamma-aminobutyric acid receptor subunit alpha-1. The assay is classed as functional.
The target in the next assay is Histamine H1 receptor (Homo sapiens, UniProt P35367).
Sequence of Histamine H1 receptor (P35367 whole entry): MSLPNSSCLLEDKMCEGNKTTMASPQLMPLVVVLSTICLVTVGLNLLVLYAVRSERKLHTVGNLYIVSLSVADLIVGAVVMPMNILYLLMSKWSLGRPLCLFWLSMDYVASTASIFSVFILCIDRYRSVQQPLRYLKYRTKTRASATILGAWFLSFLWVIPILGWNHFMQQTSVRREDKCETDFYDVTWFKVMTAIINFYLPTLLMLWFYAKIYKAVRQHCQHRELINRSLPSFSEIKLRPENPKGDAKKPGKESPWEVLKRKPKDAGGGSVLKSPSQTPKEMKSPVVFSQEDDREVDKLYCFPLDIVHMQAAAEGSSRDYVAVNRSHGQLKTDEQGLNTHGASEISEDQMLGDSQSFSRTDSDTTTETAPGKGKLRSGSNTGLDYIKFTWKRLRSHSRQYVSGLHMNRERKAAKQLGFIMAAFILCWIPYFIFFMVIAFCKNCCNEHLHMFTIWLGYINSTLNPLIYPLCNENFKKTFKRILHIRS
Note: assay procedure not described here.

Sequence of Cannabinoid receptor 1 (P21554 whole entry): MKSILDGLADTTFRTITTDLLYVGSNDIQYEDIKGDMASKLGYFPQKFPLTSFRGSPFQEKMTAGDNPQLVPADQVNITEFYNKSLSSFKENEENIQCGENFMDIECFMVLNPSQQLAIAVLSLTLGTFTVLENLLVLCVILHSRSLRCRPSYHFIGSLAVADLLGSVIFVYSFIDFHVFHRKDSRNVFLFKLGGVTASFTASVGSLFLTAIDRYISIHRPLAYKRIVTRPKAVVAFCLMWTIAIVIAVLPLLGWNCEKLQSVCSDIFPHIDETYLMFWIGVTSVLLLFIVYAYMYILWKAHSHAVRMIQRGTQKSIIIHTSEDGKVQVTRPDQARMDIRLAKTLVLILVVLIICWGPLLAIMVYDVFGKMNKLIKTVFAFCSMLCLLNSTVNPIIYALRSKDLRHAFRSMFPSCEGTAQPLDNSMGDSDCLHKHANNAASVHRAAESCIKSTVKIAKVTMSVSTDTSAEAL
Sequence of 3',5'-cyclic-AMP phosphodiesterase 4D (Q08499 whole entry): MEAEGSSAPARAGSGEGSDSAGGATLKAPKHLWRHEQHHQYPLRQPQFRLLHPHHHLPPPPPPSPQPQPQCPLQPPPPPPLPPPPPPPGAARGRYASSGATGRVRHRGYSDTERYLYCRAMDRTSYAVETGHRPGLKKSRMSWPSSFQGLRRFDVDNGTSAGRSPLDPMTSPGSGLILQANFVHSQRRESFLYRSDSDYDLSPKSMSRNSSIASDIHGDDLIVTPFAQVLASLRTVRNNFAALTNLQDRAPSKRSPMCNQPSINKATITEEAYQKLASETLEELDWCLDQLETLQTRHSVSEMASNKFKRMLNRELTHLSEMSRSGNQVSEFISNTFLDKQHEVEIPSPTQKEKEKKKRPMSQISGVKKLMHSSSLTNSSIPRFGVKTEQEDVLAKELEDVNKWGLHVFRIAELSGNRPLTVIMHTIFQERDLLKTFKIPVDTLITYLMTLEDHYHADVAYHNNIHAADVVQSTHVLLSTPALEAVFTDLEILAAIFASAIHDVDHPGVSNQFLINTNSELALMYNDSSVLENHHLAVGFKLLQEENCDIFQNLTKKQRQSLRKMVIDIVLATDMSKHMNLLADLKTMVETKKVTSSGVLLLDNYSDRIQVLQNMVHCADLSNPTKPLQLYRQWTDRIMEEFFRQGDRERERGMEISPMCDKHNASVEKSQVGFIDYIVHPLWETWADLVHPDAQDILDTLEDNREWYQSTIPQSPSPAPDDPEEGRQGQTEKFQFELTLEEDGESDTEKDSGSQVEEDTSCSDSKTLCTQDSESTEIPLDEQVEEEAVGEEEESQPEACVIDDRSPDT

Broadly, the AC50 is the concentration at which the activity in the assay is half-maximal. Take `CCCCOC(=O)c1ccc(N)cc1` [BUTAMBEN]: the AC50 (in assay [1]; at Vasopressin V2 receptor; on Glucocorticoid receptor; at Endothelin-1 receptor; on Cannabinoid receptor 1; in [2]) was over 30 µM each time. Also, the AC50 at Adenosine receptor A1 was over 30 µM; in assay [3], over 30 µM; in assay [4], over 30 µM; in [5], 26 µM; in [6], over 30 µM.
In the case of `CC(NC(C)(C)C)C(=O)c1cccc(Cl)c1` (configuration not stated) [BUPROPION], the AC50 is over 10 µM in assay [1]; over 30 µM on Vasopressin V2 receptor; over 30 µM at Glucocorticoid receptor; over 30 µM at Endothelin-1 receptor; over 30 µM on Cannabinoid receptor 1; over 30 µM at Adenosine receptor A1. The figures for the AC50 in [3] and in assay [4] were over 10 µM and over 30 µM, respectively.
Regarding `CNCCc1ccccn1` [BETAHISTINE], the AC50 (in assay [1]; on Vasopressin V2 receptor; on Glucocorticoid receptor; on Endothelin-1 receptor; on Cannabinoid receptor 1; in [2]) was over 30 µM in each case. Further, the AC50 (at Adenosine receptor A1; in assay [3]; in [4]; in assay [5]; in [6]) was over 30 µM each time.
As to `CCc1ccc(C(=O)C(C)CN2CCCCC2)cc1` (configuration not stated) [EPERISONE], the AC50 in assay [1] was 2.2 µM; on Vasopressin V2 receptor, over 30 µM; at Glucocorticoid receptor, over 30 µM; at Endothelin-1 receptor, over 30 µM; in assay [2] it was over 30 µM; on Adenosine receptor A1 it was over 30 µM. Besides, the AC50 in assay [3], in assay [4], in assay [5] and in assay [6] was over 30 µM each time.
On to `CCN(CC)CC(=O)Nc1c(C)cccc1C` [LIDOCAINE], for which the AC50 on Vasopressin V2 receptor was over 30 µM; on Glucocorticoid receptor, over 30 µM; on Endothelin-1 receptor, over 30 µM; at Adenosine receptor A1, over 30 µM; in [4], over 10 µM; in assay [5] it was over 10 µM.
Regarding `O=C(O[C@H]1C[N+]2(CCCOc3ccccc3)CCC1CC2)C(O)(c1cccs1)c1cccs1` [ACLIDINIUM BROMIDE], the AC50 on Vasopressin V2 receptor was over 30 µM; on Glucocorticoid receptor, over 30 µM; at Histamine H1 receptor it was 4.5 µM; at Endothelin-1 receptor, over 30 µM; in assay [2] it was over 10 µM; on Adenosine receptor A1 it was over 30 µM. The values for the AC50 in assay [4], in assay [5] and in assay [6] were over 30 µM, over 30 µM and over 10 µM, respectively.
Consider `CN1CCCN=C1/C=C/c1cccc(O)c1` [OXANTEL], for which the AC50 (in [1]; at Vasopressin V2 receptor; at Glucocorticoid receptor; on Endothelin-1 receptor; on Cannabinoid receptor 1; in assay [2]) was over 30 µM each time. In addition, the AC50 is over 30 µM on Adenosine receptor A1; over 30 µM in assay [3]; over 30 µM in assay [4]; 17 µM in assay [5]; over 30 µM in [6].
`Cc1nnc2n1-c1ccc(Cl)cc1C(c1ccccc1)=NC2` [ALPRAZOLAM]: the AC50 was over 10 µM in [1]; over 30 µM on Vasopressin V2 receptor; over 30 µM at Glucocorticoid receptor; over 30 µM on Endothelin-1 receptor; over 30 µM on Cannabinoid receptor 1; over 10 µM in assay [2]. Also, the AC50 at Adenosine receptor A1 is over 30 µM; in assay [3], over 10 µM; in assay [4] it was over 30 µM; in [5], over 30 µM; in [6], 0.0042 µM.
In the case of `COc1nc(C)nc(Cl)c1N=C1NCCN1` [MOXONIDINE], the AC50 (in assay [1]; on Vasopressin V2 receptor; at Glucocorticoid receptor; at Endothelin-1 receptor; on Cannabinoid receptor 1; in [2]) was over 30 µM in each case. For the same molecule, the AC50 (at Adenosine receptor A1; in [3]; in [4]; in assay [5]; in [6]) was over 30 µM in each case.
As to `CC1=C(CC(=O)O)c2cc(F)ccc2/C1=C\c1ccc([S+](C)[O-])cc1` (configuration not stated), the AC50 is over 10 µM in [1]; over 30 µM on Vasopressin V2 receptor; over 30 µM at Glucocorticoid receptor; over 30 µM at Endothelin-1 receptor; over 30 µM on Cannabinoid receptor 1; over 10 µM in [2]. In addition, the AC50 on Adenosine receptor A1 was over 30 µM; in [3], over 10 µM; in [4], over 30 µM; in assay [5] it was over 30 µM; in assay [6], over 10 µM.
Regarding `COc1cc(N)cn[n+]1-c1ccccc1` [AMEZINIUM METILSULFATE], the AC50 (in assay [1]; at Vasopressin V2 receptor; at Histamine H1 receptor; on Endothelin-1 receptor; on Cannabinoid receptor 1; in [2]) was over 30 µM each time. For the same molecule, the AC50 (on Adenosine receptor A1; in assay [3]; in [4]; in assay [5]; in [6]) was over 30 µM each time.
For the molecule `O=C1CN=C(c2ccccc2Cl)c2cc([N+](=O)[O-])ccc2N1` [CLONAZEPAM], the AC50 in assay [1] is over 10 µM; on Vasopressin V2 receptor it was over 30 µM; on Glucocorticoid receptor, over 30 µM; at Endothelin-1 receptor, over 30 µM; on Cannabinoid receptor 1, over 30 µM; in assay [2], over 10 µM. Further, the half-maximal activity concentration (AC50) is over 30 µM at Adenosine receptor A1; over 10 µM in assay [3]; over 30 µM in assay [4]; over 30 µM in [5]; 0.0025 µM in [6].
In the case of `CCOC(=O)C1=C(C)NC(C)=C(C(=O)OC)C1c1cccc(Cl)c1Cl` (configuration not stated) [FELODIPINE], the AC50 was over 10 µM in [1]; over 30 µM on Vasopressin V2 receptor; 9.94 µM on Glucocorticoid receptor; over 30 µM at Endothelin-1 receptor; over 30 µM on Cannabinoid receptor 1; over 10 µM in assay [2]. The AC50 was over 30 µM on Adenosine receptor A1; over 10 µM in assay [3]; 55.3 µM in [4]; 3.2 µM in assay [5]; over 10 µM in assay [6].
